Holding throughout (type): in vivo
Experiment [1] concerns Heterozygous GAT-HRA corn. Nature of the experiment: Postemergence herbicide application in greenhouse: fresh shoot weight and visual injury. As to conditions: for pest or weed control at 200 g/ha: Zea mays, post-emergence, read-out: % Visual Injury; for Fresh Weight: weighed 2 weeks after treatment, untreated 98.8 g.
The test system of experiment [2] is Heterozygous GAT-HRA corn. Nature of the experiment: Preemergence herbicide application in greenhouse: fresh shoot weight and visual injury. The note with it: for pest or weed control at 200 g/ha: Zea mays, pre-emergence, 672 h, read-out: % Visual Injury; for Fresh Weight: fresh shoots weighed 4 weeks after treatment, untreated 47.0 g.
For experiment [3], the system named is parent elite stiff stalk inbred corn. The description is as above. The note with it: for pest or weed control at 200 g/ha: Zea mays, pre-emergence, 672 h, read-out: % Visual Injury; for Fresh Weight: fresh shoots weighed 4 weeks after treatment, untreated 36.7 g.
The test system is the same in experiment [4]. Kind of experiment: Postemergence herbicide application in greenhouse: fresh shoot weight and visual injury. As to conditions: for pest or weed control at 200 g/ha: Zea mays, post-emergence, read-out: % Visual Injury; for Fresh Weight: weighed 2 weeks after treatment, untreated 76.4 g.
Setting [5] is: postemergence, 200 g/ha (glyphosate 3472 g ae/ha, glufosinate ammonium 1870 g/ha), 0% no injury, 100% plant death, mean of four replications.
Where [6] appears, read: postemergence, 200 g/ha (glyphosate 3472 g ae/ha, glufosinate ammonium 1870 g/ha), mean of four replications.
Setting [7] is: preemergence, 200 g/ha, 0% no injury, 100% plant death, mean of four replications.
The mark [8] stands for this setting: preemergence, 200 g/ha, mean of four replications.

With `COc1cc(OC)nc(NC(=O)NS(=O)(=O)N(C)S(C)(=O)=O)n1` [Amidosulfuron], the pest or weed control at 200 g/ha is 8% in experiment [1] (setting [5]), 25% in experiment [2] (setting [7]), 97% in experiment [3] (setting [7]) and 71% in experiment [4] (setting [5]). Also, the “Fresh Weight” value in experiment [1] (setting [6]) is on record as 107.4 g; in experiment [2] (setting [8]), 47.7 g; in experiment [3] (setting [8]), 14.2 g; in experiment [4] (setting [6]), 32.0 g.

As for `COc1cc(OC)nc(NC(=O)NS(=O)(=O)c2c(-c3nnn(C)n3)cnn2C)n1` [Azimsulfuron], the pest or weed control at 200 g/ha came out at 20% in experiment [1] (setting [5]), 40% in experiment [2] (setting [7]), 100% in experiment [3] (setting [7]) and 100% in experiment [4] (setting [5]). Also, the “Fresh Weight” value in experiment [1] (setting [6]) is reported as 87.9 g; in experiment [2] (setting [8]), 49.1 g; in experiment [3] (setting [8]), 0.0 g; in experiment [4] (setting [6]), 1.5 g.

For the compound `COC(=O)c1ccccc1CS(=O)(=O)NC(=O)Nc1nc(OC)cc(OC)n1` [Bensulfuron-methyl], the pest or weed control at 200 g/ha in experiment [1] (setting [5]) amounted to 14%; in experiment [2] (setting [7]) it was 10%; in experiment [3] (setting [7]) it was 23%; in experiment [4] (setting [5]), 93%. The “Fresh Weight” value in experiment [1] (setting [6]) came to 103.3 g; in experiment [2] (setting [8]), 39.9 g; in experiment [3] (setting [8]) it was 28.4 g; in experiment [4] (setting [6]) it was 9.0 g.

`CCOc1nc(F)cc2nc(S(=O)(=O)Nc3c(Cl)cccc3C(=O)OC)nn12` [Chloransulam-methyl]: the “% Visual Injury” value in experiment [1] (setting [5]) is on record as 3%; in experiment [2] (setting [7]) it was 3%; in experiment [3] (setting [7]), 3%; in experiment [4] (setting [5]), 96%. Further, the “Fresh Weight” value in experiment [1] (setting [6]) is on record as 104.4 g; in experiment [2] (setting [8]) it was 44.9 g; in experiment [3] (setting [8]), 5.5 g; in experiment [4] (setting [6]), 6.8 g.

Take `COc1nc(C)nc(NC(=O)NS(=O)(=O)c2ccccc2Cl)n1` [Chlorsulfuron]: the pest or weed control at 200 g/ha in experiment [1] (setting [5]) was 13%; in experiment [2] (setting [7]), 33%; in experiment [3] (setting [7]), 100%; in experiment [4] (setting [5]) it was 100%. In addition, the “Fresh Weight” value in experiment [1] (setting [6]) worked out at 105.2 g; in experiment [2] (setting [8]), 48.4 g; in experiment [3] (setting [8]), 0.0 g; in experiment [4] (setting [6]), 1.7 g.

For `CCOc1nc(NC)nc(NC(=O)NS(=O)(=O)c2ccccc2C(=O)OC)n1` [Ethametsulfuron-methyl], the pest or weed control at 200 g/ha was 6% in experiment [1] ([…]), 88% in experiment [2], 100% in experiment [3] and 96% in experiment [4] ([…]). In addition, the “Fresh Weight” value in experiment [1] (setting [6]) came out at 98.0 g; in experiment [2] (setting [8]) it was 50.1 g; in experiment [3] (setting [8]), 1.6 g; in experiment [4] (setting [6]), 5.6 g.

With `CCOc1ccccc1OS(=O)(=O)NC(=O)Nc1nc(OC)cc(OC)n1` [Ethoxysulfuron], the pest or weed control at 200 g/ha in experiment [1] (setting [5]) was 15%; in experiment [2] (setting [7]) it was 25%; in experiment [3] (setting [7]), 63%; in experiment [4] (setting [5]), 88%. For the same compound, the “Fresh Weight” value in experiment [1] (setting [6]) came to 79.3 g; in experiment [2] (setting [8]), 40.0 g; in experiment [3] (setting [8]), 28.1 g; in experiment [4] (setting [6]) it was 24.3 g.

`COc1nn(C(=O)NS(=O)(=O)c2ccccc2OC(F)(F)F)c(=O)n1C` [Flucarbazone Na^+, Flucarbazone]: the “% Visual Injury” value was 14% in experiment [1] (setting [5]), 40% in experiment [2] (setting [7]), 100% in experiment [3] (setting [7]) and 100% in experiment [4] (setting [5]). The “Fresh Weight” value is on record as 86.0 g in experiment [1] (setting [6]), 48.8 g in experiment [2] (setting [8]), 0.0 g in experiment [3] (setting [8]) and 3.1 g in experiment [4] (setting [6]).

Regarding `Cc1ccn2nc(S(=O)(=O)Nc3c(F)cccc3F)nc2n1` [Flumetsulam], the pest or weed control at 200 g/ha in experiment [1] (setting [5]) is 3%; in experiment [2] (setting [7]), 13%; in experiment [3] (setting [7]), 13%; in experiment [4] (setting [5]) it was 85%. Also, the “Fresh Weight” value in experiment [1] (setting [6]) came to 103.8 g; in experiment [2] (setting [8]) it was 39.1 g; in experiment [3] (setting [8]), 24.6 g; in experiment [4] (setting [6]) it was 12.8 g.

Consider `COC(=O)c1ccc(C(F)(F)F)nc1S(=O)(=O)NC(=O)Nc1nc(OC)cc(OC)n1` [Flupyrsulfuron-methyl Na^+, Flupyrsulfuron-methyl], for which the “% Visual Injury” value is reported as 4% in experiment [1] (setting [5]), 90% in experiment [2] (setting [7]), 87% in experiment [3] (setting [7]) and 95% in experiment [4] (setting [5]). In addition, the “Fresh Weight” value in experiment [1] (setting [6]) is 95.5 g; in experiment [2] (setting [8]), 45.8 g; in experiment [3] (setting [8]), 23.6 g; in experiment [4] (setting [6]) it was 5.2 g.

For `COc1cc(OC)nc(NC(=O)NS(=O)(=O)c2cc(NC=O)ccc2C(=O)N(C)C)n1` [Foramsulfuron], the pest or weed control at 200 g/ha in experiment [1] (setting [5]) was found to be 8%; in experiment [2] (setting [7]), 7%; in experiment [3] (setting [7]) it was 5%; in experiment [4] (setting [5]), 28%. The “Fresh Weight” value is reported as 80.6 g in experiment [1] (setting [6]), 39.1 g in experiment [2] (setting [8]), 30.6 g in experiment [3] (setting [8]) and 62.5 g in experiment [4] (setting [6]).

In the case of `CP(=O)(O)CCC(N)C(=O)O` (centres unmarked) [Glufosinate ammonium], the results for the pest or weed control at 200 g/ha in experiment [1] ([…]) and in experiment [4] ([…]) were 1% and 99%, respectively. The “Fresh Weight” value in experiment [1] (setting [6]) was 112.3 g; in experiment [4] (setting [6]) it was 2.4 g.

Turning to `COC(=O)c1c(Cl)nn(C)c1S(=O)(=O)NC(=O)Nc1nc(OC)cc(OC)n1` [Halosulfuron-methyl], the pest or weed control at 200 g/ha in experiment [1] ([…]) is 8%; in experiment [2], 15%; in experiment [3], 30%; in experiment [4] ([…]), 14%. Besides, the “Fresh Weight” value in experiment [1] (setting [6]) came out at 94.5 g; in experiment [2] (setting [8]), 40.1 g; in experiment [3] (setting [8]) it was 28.9 g; in experiment [4] (setting [6]), 58.1 g.

Regarding `COCc1cnc(C2=NC(C)(C(C)C)C(=O)N2)c(C(=O)O)c1` (centres unmarked) [Imazamox], the pest or weed control at 200 g/ha turned out to be 4% in experiment [1] (setting [5]), 13% in experiment [2] (setting [7]), 99% in experiment [3] (setting [7]) and 100% in experiment [4] (setting [5]). The “Fresh Weight” value in experiment [1] (setting [6]) was 90.9 g; in experiment [2] (setting [8]), 47.5 g; in experiment [3] (setting [8]), 0.8 g; in experiment [4] (setting [6]), 2.2 g.

For `CC(C)C1(C)N=C(c2nc3ccccc3cc2C(=O)O)NC1=O` (centres unmarked) [Imazaquin], the pest or weed control at 200 g/ha in experiment [1] ([…]) is 2%; in experiment [2] it was 28%; in experiment [3], 99%; in experiment [4] ([…]) it was 100%. Moreover, the “Fresh Weight” value in experiment [1] (setting [6]) was 113.3 g; in experiment [2] (setting [8]) it was 45.4 g; in experiment [3] (setting [8]), 1.5 g; in experiment [4] (setting [6]), 4.4 g.

Source of the values: patent publication US7803992B2, “Methods and compositions for expressing an herbicide-tolerant polynucleotide” (Pioneer Hi-Bred International, Inc., priority 2005, dated 2010).
